Values belong to the molecule of their own block, whether it stands above or below them.
Legend:
Type in all cases: cell-based
[1] = target: T1, P2X7 receptor (mP2X7R) (Mus musculus, UniProt Q9Z1M0); experiment: agonist dose-response, PI dye uptake in J774.G8 cells, plate reader
T1 construct: gene P2rx7; natively expressed in J774.G8 macrophages
T1 sequence (Q9Z1M0 1-595): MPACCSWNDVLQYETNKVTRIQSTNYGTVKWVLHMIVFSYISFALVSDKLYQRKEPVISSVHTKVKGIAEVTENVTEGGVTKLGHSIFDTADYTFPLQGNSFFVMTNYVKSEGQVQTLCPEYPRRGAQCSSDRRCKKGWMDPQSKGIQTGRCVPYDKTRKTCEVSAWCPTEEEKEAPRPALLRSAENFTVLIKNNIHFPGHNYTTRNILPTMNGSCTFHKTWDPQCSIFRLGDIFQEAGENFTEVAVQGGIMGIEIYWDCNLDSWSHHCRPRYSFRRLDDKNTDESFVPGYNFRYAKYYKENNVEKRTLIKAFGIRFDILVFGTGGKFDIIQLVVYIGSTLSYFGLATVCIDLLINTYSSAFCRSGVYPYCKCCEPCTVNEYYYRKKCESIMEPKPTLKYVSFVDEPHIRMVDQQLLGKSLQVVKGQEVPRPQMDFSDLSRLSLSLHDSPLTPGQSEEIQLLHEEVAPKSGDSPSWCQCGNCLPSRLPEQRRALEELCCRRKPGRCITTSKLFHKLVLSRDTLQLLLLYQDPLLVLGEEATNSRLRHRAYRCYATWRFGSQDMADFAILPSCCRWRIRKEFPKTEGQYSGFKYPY

[2] = target: T1, P2X7 receptor (mP2X7R); experiment: block of ATP-induced PI dye uptake in J774.G8 cells at a single concentration ([…])
[3] = target: T2, P2X7 receptor (P2X7R) (Homo sapiens, UniProt Q99572); experiment: block of ATP-induced PI dye uptake in U937 cells at a single concentration ([…])
T2 construct: gene P2RX7; native in U937 human monocyte cells
T2 sequence (Q99572 1-595): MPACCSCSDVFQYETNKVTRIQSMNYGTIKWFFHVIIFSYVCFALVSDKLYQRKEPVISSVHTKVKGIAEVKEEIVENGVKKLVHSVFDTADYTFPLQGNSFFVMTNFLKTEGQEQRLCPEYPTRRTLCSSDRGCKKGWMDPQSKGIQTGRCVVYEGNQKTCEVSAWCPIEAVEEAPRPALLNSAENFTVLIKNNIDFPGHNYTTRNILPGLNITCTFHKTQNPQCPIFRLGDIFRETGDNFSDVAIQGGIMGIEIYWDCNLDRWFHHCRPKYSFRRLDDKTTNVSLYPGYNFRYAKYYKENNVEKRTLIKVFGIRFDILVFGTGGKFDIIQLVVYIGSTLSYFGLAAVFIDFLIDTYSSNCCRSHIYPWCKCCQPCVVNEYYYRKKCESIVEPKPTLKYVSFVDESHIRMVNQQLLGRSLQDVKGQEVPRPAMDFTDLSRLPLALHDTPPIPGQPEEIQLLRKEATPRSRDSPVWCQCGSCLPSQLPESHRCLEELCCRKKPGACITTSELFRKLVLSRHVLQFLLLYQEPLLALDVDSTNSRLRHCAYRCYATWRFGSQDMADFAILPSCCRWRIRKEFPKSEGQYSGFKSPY

[4] = target: T1, P2X7 receptor (mP2X7R); experiment: inhibition of ATP-induced PI dye uptake in J774.G8 cells, plate reader
[5] = target: T1, P2X7 receptor (mP2X7R); experiment: inhibition of ATP-induced dye uptake in J774.G8 cells, plate reader

SMILES: Nc1ncnc2c1ncn2[C@@H]1O[C@H](COP(=O)(O)OP(=O)(O)OP(=O)(O)O)[C@@H](O)[C@H]1O [ATP]
EC50 [1]: 700 ± 70 µM

SMILES: O=C1CSC(=O)N1C(CCc1ccncc1)COc1ccc(-c2cccc([N+](=O)[O-])c2)cc1 (centres unmarked) [AZ, AZ11645373]
block of ATP-induced PI dye uptake in J774.G8 cells at a single concentration (1) [2]: the treatment with the selective P2X7R antagonist AZ11645373 blocked the dye uptake | block of ATP-induced PI dye uptake in U937 cells at a single concentration (10 μ) [3]: the treatment with the selective P2X7R antagonist AZ11645373 blocked the dye uptake

IC50 [4]: 1.3 to 2.6 µM
SMILES: CCOc1ccc(Nc2ccc(/C(=C3C=C/C(=[N+](/CC)Cc4cccc(S(=O)(=O)[O-])c4)C=C/3C)c3ccc(N(CC)Cc4cccc(S(=O)(=O)O)c4)cc3C)cc2)cc1 [BBG, Brilliant Blue G]

IC50 [5]: 173 to 285 µM
SMILES: Nc1ncnc2c1ncn2[C@@H](C=O)O[C@@H](C=O)COP(=O)(O)OP(=O)(O)OP(=O)(O)O [OATP, oxidized ATP]
